According to patent US9994594B2, “Inhibitors of arginase and their therapeutic applications” (MARS, INCORPORATED, priority 2010, dated 2018):
Where a name gives a salt, the structure may show the parent alone.

Tests used:
human arginase I (ARG I) = molecular target: T1, human arginase I (ARG I) (Homo sapiens, UniProt P05089); test: Inhibition of arginase I, spectrophotometric urea assay at 530 nm; assay type: biochemical; conditions: Formula II compounds, Table 2-A; read-out: Potency (ARG I)
T1 sequence (P05089 1-322): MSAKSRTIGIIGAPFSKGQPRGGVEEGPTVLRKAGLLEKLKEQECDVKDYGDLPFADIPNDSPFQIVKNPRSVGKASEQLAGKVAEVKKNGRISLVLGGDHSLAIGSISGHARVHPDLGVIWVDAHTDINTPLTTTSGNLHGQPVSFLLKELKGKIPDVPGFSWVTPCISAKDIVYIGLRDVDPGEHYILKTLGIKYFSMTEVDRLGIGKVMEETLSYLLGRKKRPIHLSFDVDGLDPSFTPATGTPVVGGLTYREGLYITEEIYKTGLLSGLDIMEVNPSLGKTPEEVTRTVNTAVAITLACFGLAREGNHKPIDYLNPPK
Method: (§1) The assay established the concentration of inhibitor that is required to reduce arginase activity by 50% (IC50).
(§2) Inhibition of arginase I (ARG I) and arginase II (ARG II) by Formula I and Formula II compounds is followed spectrophotometrically at 530 nm. The compound to be tested is dissolved in DMSO at an initial concentration 50-fold greater than its final concentration in the cuvette. 10 μl of the stock solution is diluted in 90 μl of the assay buffer that comprises 0.1M sodium phosphate buffer containing 130 mM NaCl, pH 7.4, to which is added ovalbumin (OVA) at a concentration of 1 mg/ml. Solutions of arginase I and II are prepared in 100 mM sodium phosphate buffer, pH 7.4 containing 1 mg/ml of OVA to give an arginase stock solution at a final concentration of 100 ng/ml.
(§3) To each well of a 96-well microtiter plate is add 40 μl of enzyme, 10 μl of an inventive compound and 10 μl of enzyme substrate (L-arginine+manganese sulfate). For wells that are used as positive controls, only the enzyme and its substrate are added, while wells used as negative controls contain only manganese sulfate.
(§4) After incubating the microtiter plate at 37° C. for 60 minutes, 150 μl of a urea reagent obtained by combining equal proportions (1:1) of reagents A and B is added to each well of the microtiter plate to stop the reaction. The urea reagent is made just before use by combining Reagent A (10 mM o-phthaldialdehyde, and 0.4% polyoxyethylene (23) lauryl ether (w/v) in 1.8 M sulfuric acid) with Reagent B (1.3 mM primaquine diphosphate, 0.4% polyoxyethylene (23) lauryl ether (w/v), 130 mM boric acid in 3.6 M sulfuric acid). After quenching the reaction mixture, the microtiter plate is allowed to stand for an additional 10 minutes at room temperature to allow color development. The inhibition of arginase is computed by measuring the optical density (OD) of the reaction mixture at 530 nm and normalizing the OD value to percent inhibition observed in the control. The normalized OD is then used to generate a dose-response curve by plotting the normalized OD values against log [concentration] and using regression analysis to compute the IC50 values.

arginase II (ARG II) = molecular target: T2, arginase II (ARG II) (Homo sapiens, UniProt P78540); test: Inhibition of arginase II, spectrophotometric urea assay at 530 nm; assay type: biochemical; conditions: Formula II compounds, Table 2-A; read-out: Potency (ARG)
T2 sequence (P78540 23-354): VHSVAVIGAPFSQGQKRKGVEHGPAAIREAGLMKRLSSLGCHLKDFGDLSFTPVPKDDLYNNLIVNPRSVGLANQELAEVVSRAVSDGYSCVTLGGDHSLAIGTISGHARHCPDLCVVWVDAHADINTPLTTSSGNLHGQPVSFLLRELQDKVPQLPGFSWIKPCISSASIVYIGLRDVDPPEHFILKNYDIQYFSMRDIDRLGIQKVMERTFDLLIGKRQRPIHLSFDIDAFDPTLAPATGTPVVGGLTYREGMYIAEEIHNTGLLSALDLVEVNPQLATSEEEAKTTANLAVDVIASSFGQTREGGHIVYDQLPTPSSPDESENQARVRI
Method: as §1, §2, §3, §4

`NC(CCCCB(O)O)(C(=O)O)C1CCN(Cc2ccc(Cl)c(F)c2)CC1` (stereo not drawn) [Example 49-A, 2-amino-6-borono-2-(1-(4-chloro-3-fluorobenzyl)piperidin-4-yl)hexanoic acid] was tested, and the IC50 (human arginase I (ARG I)) was 251 to 1000 nM and the IC50 (arginase II (ARG II)) was 0.1 to 250 nM.

With `NC(CCCCB(O)O)(C(=O)O)C1CCN(CCCc2cc(F)cc(Cl)c2)CC1` (stereo not drawn) [Example 50-A, 2-amino-6-borono-2-(1-(3-(3-chloro-5-fluorophenyl)propyl)piperidin-4-yl)hexanoic acid] the IC50 (human arginase I (ARG I)) was 0.1 to 250 nM and the IC50 (arginase II (ARG II)) was 251 to 1000 nM.

In the case of `NC(CCCCB(O)O)(C(=O)O)C1CCN(Cc2ccc(F)c3ccccc23)CC1` (stereo not drawn) [Example 51-A, 2-amino-6-borono-2-(1-((4-fluoronaphthalen-1-yl)methyl)piperidin-4-yl)hexanoic acid], the IC50 (human arginase I (ARG I)) is reported as 0.1 to 250 nM and the IC50 (arginase II (ARG II)) is reported as 251 to 1000 nM.

For `NC(CCCCB(O)O)(C(=O)O)C1CCN(CCCc2ccc(F)cc2F)CC1` (stereo not drawn) [Example 52-A, 2-amino-6-borono-2-(1-(3-(2,4-difluorophenyl)propyl)piperidin-4-yl)hexanoic acid dihydrochloride], the IC50 (human arginase I (ARG I)) was 0.1 to 250 nM and the IC50 (arginase II (ARG II)) was 0.1 to 250 nM.

`NC(CCCCB(O)O)(C(=O)O)C1CCN(Cc2ccccc2C(F)(F)F)CC1` (stereo not drawn) [Example 53-A, 2-amino-6-borono-2-(1-(2-(trifluoromethyl)benzyl)piperidin-4-yl)hexanoic acid dihydrochloride] was tested, and the IC50 (human arginase I (ARG I)) was 251 to 1000 nM and the IC50 (arginase II (ARG II)) was 251 to 1000 nM.

`NC(CCCCB(O)O)(C(=O)O)C1CCN(Cc2ccccc2N2CCOCC2)CC1` (stereo not drawn) [Example 54-A, 2-amino-6-borono-2-(1-(2-morpholinobenzyl)piperidin-4-yl)hexanoic acid dihydrochloride] was tested, and the IC50 (human arginase I (ARG I)) was 0.1 to 250 nM and the IC50 (arginase II (ARG II)) was 251 to 1000 nM.

`NC(CCCCB(O)O)(C(=O)O)C1CCN(Cc2ccccc2-c2ccccc2)CC1` (stereo not drawn) [Example 55-A, 2-amino-2-(1-(biphenyl-2-ylmethyl)piperidin-4-yl)-6-boronohexanoic acid dihydrochloride] gave an IC50 (human arginase I (ARG I)) of 0.1 to 250 nM and an IC50 (arginase II (ARG II)) of 0.1 to 250 nM.

`NC(CCCCB(O)O)(C(=O)O)C1CCN(Cc2cccc3cccnc23)CC1` (stereo not drawn) [Example 56-A, 2-amino-6-borono-2-(1-(quinolin-8-ylmethyl)piperidin-4-yl)hexanoic acid dihydrochloride] gave an IC50 (human arginase I (ARG I)) of 0.1 to 250 nM and an IC50 (arginase II (ARG II)) of 251 to 1000 nM.

Work on `NC(CCCCB(O)O)(C(=O)O)C1CCN(Cc2ccccc2-c2cccnc2)CC1` (stereo not drawn) [Example 57-A, 2-amino-6-borono-2-(1-(2-(pyridin-3-yl)benzyl)piperidin-4-yl)hexanoic acid dihydrochloride] yielded an IC50 (human arginase I (ARG I)) of 0.1 to 250 nM and an IC50 (arginase II (ARG II)) of 251 to 1000 nM.

With `COc1cccc(-c2ccccc2CN2CCC(C(N)(CCCCB(O)O)C(=O)O)CC2)c1` (stereo not drawn) [Example 58-A, 2-amino-6-borono-2-(1-((3′-methoxybiphenyl-2-yl)methyl)piperidin-4-yl)hexanoic acid dihydrochloride] the IC50 (human arginase I (ARG I)) was 0.1 to 250 nM and the IC50 (arginase II (ARG II)) was 251 to 1000 nM.

`NC(CCCCB(O)O)(C(=O)O)C1CCN(CCc2ccc(F)c(F)c2)CC1` (stereo not drawn) [Example 59-A, 2-amino-6-borono-2-(1-(3,4-difluorophenethyl)piperidin-4-yl)hexanoic acid acid dihydrochloride] gave an IC50 (human arginase I (ARG I)) of 0.1 to 250 nM and an IC50 (arginase II (ARG II)) of 0.1 to 250 nM.

In the case of `NC(CCCCB(O)O)(C(=O)O)C1CCN(Cc2cccc3c2OCCC3)CC1` (stereo not drawn) [Example 60-A, 2-amino-6-borono-2-(1-(chroman-8-ylmethyl)piperidin-4-yl)hexanoic acid dihydrochloride], the IC50 (human arginase I (ARG I)) is reported as 0.1 to 250 nM and the IC50 (arginase II (ARG II)) is reported as 0.1 to 250 nM.

With `Cc1cc(CN2CCC(C(N)(CCCCB(O)O)C(=O)O)CC2)n(C)n1` (stereo not drawn) [Example 62-A, 2-amino-6-borono-2-(1-((1,3-dimethyl-1H-pyrazol-5-yl)methyl)piperidin-4-yl)hexanoic acid dihydrochloride] the IC50 (human arginase I (ARG I)) was 251 to 1000 nM and the IC50 (arginase II (ARG II)) was 251 to 1000 nM.

`NC(CCCCB(O)O)(C(=O)O)C1CCN(CCCc2ccc(C(F)(F)F)cc2)CC1` (stereo not drawn) [Example 63-A, 2-amino-6-borono-2-(1-(3-(4-(trifluoromethyl)phenyl)propyl)piperidin-4-yl)hexanoic acid acid dihydrochloride] was tested, and the IC50 (human arginase I (ARG I)) was 0.1 to 250 nM and the IC50 (arginase II (ARG II)) was 0.1 to 250 nM.

For `NC(CCCCB(O)O)(C(=O)O)C1CCN(Cc2ccc(Oc3ccc(Cl)c(Cl)c3)cc2)CC1` (stereo not drawn) [Example 64-A, 2-amino-6-borono-2-(1-(4-(3,4-dichlorophenoxy)benzyl)piperidin-4-yl)hexanoic acid dihydrochloride], the IC50 (human arginase I (ARG I)) was 0.1 to 250 nM and the IC50 (arginase II (ARG II)) was 0.1 to 250 nM.

For `NC(CCCCB(O)O)(C(=O)O)C1CCN(Cc2cccc(Cn3cccn3)c2)CC1` (stereo not drawn) [Example 65-A, 2-(1-(3-((1H-pyrazol-1-yl)methyl)benzyl)piperidin-4-yl)-2-amino-6-boronohexanoic acid dihydrochloride], the IC50 (human arginase I (ARG I)) was 0.1 to 250 nM and the IC50 (arginase II (ARG II)) was 0.1 to 250 nM.

Compound `NC(CCCCB(O)O)(C(=O)O)C1CCN(CCCc2ccc(Cl)cc2Cl)CC1` (stereo not drawn) [Example 66-A, 2-amino-6-borono-2-(1-(3-(2,4-dichlorophenyl)propyl)piperidin-4-yl)hexanoic acid dihydrochloride] has an IC50 (human arginase I (ARG I)) of 0.1 to 250 nM and an IC50 (arginase II (ARG II)) of 0.1 to 250 nM.

Compound `NC(CCCCB(O)O)(C(=O)O)[C@@H]1CCN(Cc2ccccc2)C1` (stereo partly drawn) [Example 67-A, 2-amino-2-((R)-1-benzylpyrrolidin-3-yl)-6-boronohexanoic acid dihydrochloride] has an IC50 (human arginase I (ARG I)) of 251 to 1000 nM and an IC50 (arginase II (ARG II)) of 251 to 1000 nM.

With `NC(CCCCB(O)O)(C(=O)O)[C@H]1CCN(Cc2ccccc2)C1` (stereo partly drawn) [Example 68-A, 2-amino-2-((S)-1-benzylpyrrolidin-3-yl)-6-boronohexanoic acid dihydrochloride] the IC50 (human arginase I (ARG I)) was 251 to 1000 nM and the IC50 (arginase II (ARG II)) was 251 to 1000 nM.

`NC(CCCCB(O)O)(C(=O)O)[C@H]1CCCN(Cc2ccc(Cl)c(Cl)c2)C1` (stereo partly drawn) [Example 69-A, 2-amino-6-borono-2-((S)-1-(3,4-dichlorobenzyl)piperidin-3-yl)hexanoic acid dihydrochloride] was tested, and the IC50 (human arginase I (ARG I)) was 251 to 1000 nM and the IC50 (arginase II (ARG II)) was 1000 to 2000 nM.

`NC(CCCCB(O)O)(C(=O)O)C1CCCNCC1` (stereo not drawn) [Example 72-A, 2-amino-2-(azepan-4-yl)-6-boronohexanoic acid dihydrochloride] was tested, and the IC50 (human arginase I (ARG I)) was 0.1 to 250 nM and the IC50 (arginase II (ARG II)) was 251 to 1000 nM.

In the case of `NC(CCCCB(O)O)(C(=O)O)C1CCCN(Cc2ccc(Cl)c(Cl)c2)CC1` (stereo not drawn) [Example 73-A, 2-amino-6-borono-2-(1-(3,4-dichlorobenzyl)azepan-4-yl)hexanoic acid dihydrochloride], the IC50 (human arginase I (ARG I)) is reported as 0.1 to 250 nM and the IC50 (arginase II (ARG II)) is reported as 251 to 1000 nM.

`NC(CCCCB(O)O)(C(=O)O)[C@H]1C[C@@H](NCc2ccccc2)C1` (stereo partly drawn) [Example 74-A, cis-2-amino-2-(3-(benzylamino)cyclobutyl)-6-boronohexanoic acid dihydrochloride] showed an IC50 (human arginase I (ARG I)) of 0.1 to 250 nM and an IC50 (arginase II (ARG II)) of 0.1 to 250 nM.

Compound `NC(CCCCB(O)O)(C(=O)O)[C@H]1C[C@H](NCc2ccccc2)C1` (stereo partly drawn) [Example 75-A, trans-2-amino-2-(3-(benzylamino)cyclobutyl)-6-boronohexanoic acid dihydrochloride] has an IC50 (human arginase I (ARG I)) of 0.1 to 250 nM and an IC50 (arginase II (ARG II)) of 251 to 1000 nM.

`NC(CCCCB(O)O)(C(=O)O)[C@H]1C[C@@H](NCc2ccc(OC(F)(F)F)cc2)C1` (stereo partly drawn) [Example 76-A, cis-2-amino-6-borono-2-(3-(4-(trifluoromethoxy)benzylamino)cyclobutyl)hexanoic acid dihydrochloride] gave an IC50 (human arginase I (ARG I)) of 0.1 to 250 nM and an IC50 (arginase II (ARG II)) of 0.1 to 250 nM.

With `NC(CCCCB(O)O)(C(=O)O)[C@H]1C[C@@H](NCc2ccc(-c3ccccc3)cc2)C1` (stereo partly drawn) [Example 77-A, cis-2-amino-2-(3-(biphenyl-4-ylmethylamino)cyclobutyl)-6-boronohexanoic acid dihydrochloride] the IC50 (human arginase I (ARG I)) was 0.1 to 250 nM and the IC50 (arginase II (ARG II)) was 0.1 to 250 nM.

For `NC(CCCCB(O)O)(C(=O)O)[C@H]1C[C@@H](NCc2cc3c(cc2Cl)OCO3)C1` (stereo partly drawn) [Example 78-A, cis-2-amino-6-borono-2-(3-((6-chlorobenzo[d][1,3]dioxol-5-yl)methylamino)cyclobutyl)hexanoic acid dihydrochloride], the IC50 (human arginase I (ARG I)) was 0.1 to 250 nM and the IC50 (arginase II (ARG II)) was 0.1 to 250 nM.
